The record followed here is PubChem BioAssay (NCI).

Each structure is given as a SMILES string. Values joined by “and” are separate entries in the source; they are usually repeats but may differ in a detail not shown here. Identical values can stand only once.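 Step 1: Grow cells in 96-well plates. Step 2: Expose to compound for 48 hours at 5 concentrations. Step 3: Interpolate endpoints linearly; if unreached, use highest concentration. At the GI50, growth is halved. Definition used: TGI = concentration required for complete inhibition of growth.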 Where only a bound is given, the exact number is not on record here.

Some test systems named below: A498 renal; A549 NSCLC; COLO 205 colon; HOP-92 NSCLC; HT29 colon; MDA-MB-435; NCI-H522 lung; PC-3 prostate; RPMI-8226 leukemia; T-47D breast.
Holding throughout (test): NCI anticancer screen, dose series, 48 h

Take `O=[N+]([O-])c1ccc(N2CCN(Cc3ccccc3)CC2)c2c1no[n+]2[O-]`: the GI50 with A498 renal was 1.52 µM; in the assay on A549 NSCLC, 1.5 µM; in the assay with COLO 205 colon, 1.48 µM; in the assay with HOP-92 NSCLC, 1.07 µM; in the assay with HT29 colon, 0.829 µM; in the assay with MDA-MB-435 it was 1.72 µM. Further, the GI50 was 0.682 µM in the assay with NCI-H522 lung, 1.25 µM with PC-3 prostate, 1.76 µM in the assay with RPMI-8226 leukemia and 1.41 µM in the assay with T-47D breast. Moreover, the TGI with A498 renal is 4.35 µM; with A549 NSCLC, 3.19 µM; with COLO 205 colon it was 3.04 µM; in the assay on HOP-92 NSCLC, 2.36 µM; in the assay with HT29 colon, 2.12 µM; with MDA-MB-435 it was 3.38 µM. Besides, the TGI in the assay on NCI-H522 lung was found to be 2.16 µM; in the assay on PC-3 prostate, 2.7 µM; in the assay with RPMI-8226 leukemia, 4.64 µM; in the assay with T-47D breast it was 3.89 µM.

Consider `O=C(Nc1ccc(-c2nc3cc4ccccc4cc3[nH]2)cc1)c1cccc(Br)c1`, for which the GI50 is 47.1 µM with A498 renal; 2.83 µM with A549 NSCLC; 8.87 µM with COLO 205 colon; 4 µM in the assay on HOP-92 NSCLC; 2.77 µM in the assay with HT29 colon; 4.72 µM in the assay on MDA-MB-435. In addition, the GI50 is 12.1 µM with NCI-H522 lung, 3.02 µM with PC-3 prostate, 10.6 µM in the assay with RPMI-8226 leukemia and 4.09 µM in the assay with T-47D breast. Also, the TGI in the assay on A498 renal was > 100 µM; in the assay with A549 NSCLC, 10.6 µM; in the assay on COLO 205 colon, 40 µM; in the assay with HOP-92 NSCLC, 17.8 µM; in the assay on HT29 colon, 11.9 µM; in the assay on MDA-MB-435, 20.4 µM. In addition, the TGI in the assay on NCI-H522 lung stood at 31.8 µM; in the assay on PC-3 prostate, 13.4 µM; with RPMI-8226 leukemia, 56.8 µM; in the assay on T-47D breast, 18.1 µM.

In the case of `CCNC(=O)C[C@@H]1N=C(c2ccc(Cl)cc2)c2cc(OC)ccc2-n2c(C)nnc21`, the GI50 was 1.73 µM in the assay on A498 renal; 13.1 µM in the assay with A549 NSCLC; 0.994 µM in the assay on COLO 205 colon; 0.548 µM in the assay on HOP-92 NSCLC; 1.02 µM with HT29 colon; 1.75 µM with MDA-MB-435. The GI50 with NCI-H522 lung is 2.08 µM; with PC-3 prostate, 3.15 µM; in the assay on RPMI-8226 leukemia, 0.367 µM; in the assay with T-47D breast it was 2.9 µM. Further, the TGI in the assay with A498 renal was > 69.3 µM; with A549 NSCLC, > 100 µM; in the assay on COLO 205 colon, > 100 µM; in the assay on HOP-92 NSCLC it was > 100 µM; in the assay on HT29 colon, > 100 µM; with MDA-MB-435, > 100 µM. In addition, the TGI is > 100 µM in the assay on NCI-H522 lung, > 100 µM in the assay on PC-3 prostate, 5.74 µM in the assay with RPMI-8226 leukemia and > 100 µM with T-47D breast.

Regarding `CN(C)CCCCN1CCc2c(n(C)c3ccccc23)C1=O`, the GI50 was > 59 µM and 19.9 µM in the assay on A498 renal; 33 µM and > 68.7 µM with PC-3 prostate; 61.7 µM and 29.3 µM with RPMI-8226 leukemia. Moreover, the TGI with A498 renal is > 85.1 µM and 49 µM; with A549 NSCLC it was > 93.5 µM; in the assay on COLO 205 colon it was 61.7 µM and 33 µM; in the assay on HOP-92 NSCLC, 81.2 µM and > 90.7 µM; with HT29 colon, 63.4 µM and 37.9 µM; in the assay on MDA-MB-435 it was 33.9 µM and 35 µM. Moreover, the TGI was > 82 µM in the assay on NCI-H522 lung; > 100 µM in the assay on PC-3 prostate; 93.2 µM and 64.7 µM with RPMI-8226 leukemia; > 51.5 µM and 59.9 µM in the assay with T-47D breast.

For the compound `Cc1ccc(Nc2nc(NCCO)c3ccccc3n2)cc1C`, the GI50 with A498 renal was 0.0535 µM; in the assay on A549 NSCLC, 5.4 µM; in the assay with COLO 205 colon it was 1.81 µM; in the assay with HOP-92 NSCLC it was 1.97 µM; in the assay with HT29 colon, 3.25 µM; with MDA-MB-435, 4 µM. Besides, the GI50 was 4.68 µM in the assay with NCI-H522 lung, 4.24 µM in the assay on PC-3 prostate, 2.55 µM in the assay on RPMI-8226 leukemia and 2.29 µM with T-47D breast. For the same compound, the TGI came to 2.06 µM with A498 renal; 22.7 µM in the assay on A549 NSCLC; 3.73 µM in the assay with COLO 205 colon; 8.03 µM in the assay on HOP-92 NSCLC; 10.6 µM with HT29 colon; 15.9 µM in the assay with MDA-MB-435. Moreover, the TGI turned out to be 18 µM in the assay on NCI-H522 lung, 16.7 µM with PC-3 prostate, 9.46 µM with RPMI-8226 leukemia and 10.4 µM with T-47D breast.

With `CC/C=C\C[C@H](O)C/C=C1/C(=O)C=C[C@@H]1C/C=C\CCCC(=O)NC(C)C`, the GI50 in the assay with A498 renal is 5.16 µM; in the assay with A549 NSCLC, 3.24 µM; with COLO 205 colon it was 2.51 µM; in the assay with HOP-92 NSCLC, 2.75 µM; in the assay on HT29 colon, 2.23 µM; with MDA-MB-435, 2.3 µM. Also, the GI50 was 1.59 µM in the assay on NCI-H522 lung, 2.52 µM in the assay with PC-3 prostate, 2.73 µM in the assay with RPMI-8226 leukemia and 4.19 µM with T-47D breast. Further, the TGI in the assay on A498 renal amounted to 16.3 µM; with A549 NSCLC, 9.46 µM; with COLO 205 colon it was 5.44 µM; with HOP-92 NSCLC it was 6.08 µM; with HT29 colon it was 4.11 µM; with MDA-MB-435 it was 6.51 µM. In addition, the TGI in the assay with NCI-H522 lung stood at 3.24 µM; with PC-3 prostate, 6.24 µM; in the assay with RPMI-8226 leukemia it was 7.02 µM; with T-47D breast, 19.2 µM.
